Assay [1] relates to plasma membrane NADH oxidase. The note with it: addition at 0.1 µM; normal rat liver plasma membrane vesicles; no addition 0.72 ± 0.06; cited from earlier work.
Assay [2] deals with plasma membrane NADH oxidase. The experiment in a line: Spectrophotometric NADH oxidase assay, rat liver plasma membranes (normal cells). In kind it is biochemical. Here is the method: Purification of plasma membranes from rat liver. A 5000 x g pellet from the preparation of Golgi apparatus (Morré (1971) Meth. Enzymol. 22, 130-148) was the starting material. The fluffy layer which contains the Golgi apparatus fraction was mixed, withdrawn and excluded from the plasma membrane preparations. Cold 1 mM NaHCO3 (5 ml) was added to each tube and the friable yellow-brown upper part of the pellet was resuspended with a pen-brush, leaving the reddish tightly packed bottom part of the pellet undisturbed. The resuspended material was homogenized in aliquots of 5 ml each in a 30 ml stainless steel homogenizer (Duragrind) 20 times by hand. The homogenates were combined, diluted with cold 1 mM NaHCO3 (1:1 dilution), and centrifuged at 6000 x g in a HB rotor for 15 min. The supernatant was discarded and the pellet was used for the two-phase separation (Morré & Morré (1989) BioTechniques 7:946-958).
The two-phase system contained 6.4% (w/w) Dextran T-500 (Pharmacia), 6.4% (w/w) polyethylene glycol) 3350 (Fisher), and 5 mM potassium phosphate buffer (pH 7.2) (Morré & Morré, 1989, supra). The homogenate (1 g) was added to the two-phase system and the weight of the system was brought to 8 g with distilled water. The tubes were inverted vigorously for 40 times in the cold (4°C). The phases were separated by centrifugation at 750 rpm (150 x g) in a Sorvall HB 4 rotor for 5 min. The upper phases were carefully withdrawn with a pasteur pipette, divided in half and transferred into 40 ml plastic centrifuge tubes and diluted with cold 1 mM NaHCO3. The purified plasma membranes were collected by centrifugation at 10,000 x g in a HB rotor for 30 min. Plasma membrane pellets were resuspended in 50 mM Tris-Mes buffer (pH 7.2) and stored at -70°C. Proteins were determined using the bicinchoninic acid (BCA) assay (Smith et al. (1985) Anal. Biochem. […]: 76-85) with bovine serum albumin as standard.
(§1) Spectrophometric assay of NADH oxidase. NADH oxidase activity was determined as the disappearance of NADH measured at 340 nm in a reaction mixture containing 25 mM Tris-MES buffer (pH 7.2), 1 mM KCN to inhibit the low levels of contaminating mitochondrial oxidase activity, and 150 µM NADH at 37°C with constant stirring. Activity was measured using a Hitachi U3210 spectrophotometer with continuous recording over two intervals of 5 min each. A millimolar extinction coefficient of 6.22 was used to determine specific activity.

Assay [3] addresses T1, plasma membrane NADH oxidase activity from RLT-N hepatoma (Rattus norvegicus, UniProt D3Z9Z5).
T1 sequence (D3Z9Z5 1-606): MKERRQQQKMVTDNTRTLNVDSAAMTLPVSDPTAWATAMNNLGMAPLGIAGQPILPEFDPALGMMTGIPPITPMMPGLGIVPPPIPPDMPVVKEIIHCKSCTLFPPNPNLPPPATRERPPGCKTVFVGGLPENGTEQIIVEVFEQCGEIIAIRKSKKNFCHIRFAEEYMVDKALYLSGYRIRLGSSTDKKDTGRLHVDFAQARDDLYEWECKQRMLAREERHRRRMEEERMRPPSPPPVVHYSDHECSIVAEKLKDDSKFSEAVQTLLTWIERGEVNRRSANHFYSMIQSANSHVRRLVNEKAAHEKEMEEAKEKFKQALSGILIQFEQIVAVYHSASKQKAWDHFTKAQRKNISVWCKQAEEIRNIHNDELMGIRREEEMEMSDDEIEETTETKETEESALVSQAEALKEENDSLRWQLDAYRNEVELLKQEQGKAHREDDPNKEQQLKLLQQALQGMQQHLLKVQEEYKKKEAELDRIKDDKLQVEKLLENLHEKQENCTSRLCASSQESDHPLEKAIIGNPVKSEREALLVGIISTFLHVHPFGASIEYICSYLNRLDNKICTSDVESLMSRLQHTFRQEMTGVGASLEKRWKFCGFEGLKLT
The experiment in a line: Spectrophotometric NADH oxidase assay, rat hepatoma plasma membranes. It counts as biochemical. The note with it: 0.1 µM adriamycin; hepatoma plasma membranes. The protocol:
as §1

The subject of assay [4] is NADH oxidase activity of plasma membranes of HL-60 cells. Put plainly: NADH oxidase assay, HL-60 plasma membranes. It counts as biochemical, human. Here is the method: as §1
Assay [5] concerns HL-60 cells. The experiment in a line: Ascorbate radical assay of electron flow released from cells. It counts as cell-based, human. The note with it: 0.2 mM ascorbate. The protocol: Of particular interest is employing an electron acceptor in the assay for NADH oxidase, conveniently ascorbate radical, where one may follow the rate of disappearance of the ascorbate radical under the conditions of the assay. One can measure the reduction of ascorbate free radical at 265 nm employing a spectrophotometer as described by Winkler (1987) Biochim. et Biophys. Acta 925:258-264. One may use intact cells suspended in a convenient buffer medium containing ascorbate, incubating the cell suspension and then following the reduction of the ascorbate as described above. See, also, Alcain et al. (1991) Biochim. et Biophys. Acta 1073:380-385 and Navas et al. (1992) FEBS Letters 299:223-226.
Under these conditions, electron flow is inhibited by adriamycin at concentrations where growth is inhibited in adriamycin susceptible HL-60 cells, but not inhibited with adriamycin-resistant cells, where growth also is not inhibited. These inhibitions with susceptible cells were observed without perceptible lag. Also the response was observed without preincubation with adriamycin.

In assay [6] the test system is NADH oxidase activity of serum. The experiment in a line: NADH oxidation by rat serum samples. Conditions: +0.25 µM adriamycin. It counts as biochemical. The protocol: as §1
Assay [7] has as its system circulating NADH oxidase in the serum. Put plainly: NADH oxidase activity of human serum. It counts as biochemical. The note with it: adriamycin. Here is the method:
as §1

The test system of assay [8] is HL-60 cells. The experiment in a line: Growth of HL-60 cells in suspension. It counts as cell-based, human.
Assay [9] relates to FIV-infected Crandall feline leukemia cells. Put plainly: Growth of FIV-infected cells. In kind it is cell-based. The note with it: Felis catus, read-out: concentration inhibiting growth. Here is the method:
(§2) The antisera were conjugated to adriamycin through an activated carboxyl of the antibody to the amine of adriamycin free base using 2-isobutoxyl-1-isobutoxycarbonyl-1,2-dihydroxyquinoline, where the antibody was bound to an Ag-BSA sepharose affinity column. The concentration of drug conjugated was determined spectroscopically and was tested initially at a concentration of 0.2 µM on the growth of FIV-infected and -uninfected Crandall feline leukemia cells.

The test system of assay [10] is uninfected Crandall feline leukemia cells. The experiment in a line: Growth of uninfected cells. In kind it is cell-based. The note with it: Felis catus; normal cells; read-out: concentration inhibiting growth. The protocol: as §2

In the case of `C=C1/C(=C\C=C2/CCC[C@]3(C)[C@@H]([C@H](C)CCCC(C)(C)O)CC[C@@H]23)C[C@@H](O)C[C@@H]1O` [Calcitrol], the NADH oxidase in assay [1] was 0.16 ± 0.04 nmoles/min/mg protein.

Take `COc1cccc2c1C(=O)c1c(O)c3c(c(O)c1C2=O)C[C@@](O)(C(=O)CO)C[C@@H]3O[C@H]1C[C@H](N)[C@H](O)[C@H](C)O1` [adriamycin]: the “inhibition of growth factor-stimulated NADH oxidase activity” value in assay [2] (0.1 µM adriamycin, activity stimulated by epidermal growth factor (EGF)) was “inhibited completely”. Moreover, in [2] (0.1 µM adriamycin, liver plasma membranes), the “inhibition of NADH oxidase activity” value was “uninhibited”. Further, the IC50 in assay [2] (plasma membranes from rat liver, normal cells, read-out: ED50 for inhibition of NADH oxidase activity) was about 7 µM. Moreover, 0.1 µM produced 40% inhibition in [3]. In addition, the “inhibition of NADH oxidase activity (in words)” value in assay [4] (adriamycin-resistant HL-60 cells) was “not inhibited”; in assay [4] (normal, adriamycin-susceptible HL-60 cells), “inhibited”. Moreover, the “inhibition of electron flow (in words)” value in assay [5] (adriamycin susceptible HL-60 cells) is “inhibited”; in [5] (adriamycin-resistant cells) it was “not inhibited”. Also, the “Relative rates of NADH oxidation” value is given as 1.75 ± 0.05 in assay [6] (serum from normal rats, no adriamycin 1.7 ± 0.1) and 0.35 ± 0.05 in [6] (serum from rats bearing an RLT-28 tumor, no adriamycin 1.0 ± 0.1). Also, the “effect on change in absorbance (in words)” value in [7] (sera from 12 normal individuals) is on record as “consistently stimulated”. Besides, the “effect on activity (in words)” value in assay [7] (sera from the 18 cancer patients) was “inhibited with 17 of the samples and unchanged in one”. Further, the “inhibition of growth (in words)” value in assay [8] (HL-60 cells, adriamycin susceptible, not differentiated) is recorded as “inhibited”; in assay [8] (adriamycin-resistant cells), “not inhibited”. Moreover, the minimal effective concentration in assay [9] and in assay [10] was at least 10 µM each time.

Values taken from patent EP0752872B1, “NADH OXIDASE AS A TARGET IN DIAGNOSIS AND THERAPY” (Morré, D. James, priority 1994, dated 1995).
